Molecules are shown by their SMILES. Where a name gives a salt, the structure may show the parent alone.

This assay addresses T1, Human Polθ polymerase domain (aa1820-2590) (Homo sapiens, UniProt O75417).
T1 construct: Human Polθ polymerase domain (aa1820-2590) was expressed in E. Coli; made in house; host or cells: E. coli
T1 sequence (O75417 1820-2590): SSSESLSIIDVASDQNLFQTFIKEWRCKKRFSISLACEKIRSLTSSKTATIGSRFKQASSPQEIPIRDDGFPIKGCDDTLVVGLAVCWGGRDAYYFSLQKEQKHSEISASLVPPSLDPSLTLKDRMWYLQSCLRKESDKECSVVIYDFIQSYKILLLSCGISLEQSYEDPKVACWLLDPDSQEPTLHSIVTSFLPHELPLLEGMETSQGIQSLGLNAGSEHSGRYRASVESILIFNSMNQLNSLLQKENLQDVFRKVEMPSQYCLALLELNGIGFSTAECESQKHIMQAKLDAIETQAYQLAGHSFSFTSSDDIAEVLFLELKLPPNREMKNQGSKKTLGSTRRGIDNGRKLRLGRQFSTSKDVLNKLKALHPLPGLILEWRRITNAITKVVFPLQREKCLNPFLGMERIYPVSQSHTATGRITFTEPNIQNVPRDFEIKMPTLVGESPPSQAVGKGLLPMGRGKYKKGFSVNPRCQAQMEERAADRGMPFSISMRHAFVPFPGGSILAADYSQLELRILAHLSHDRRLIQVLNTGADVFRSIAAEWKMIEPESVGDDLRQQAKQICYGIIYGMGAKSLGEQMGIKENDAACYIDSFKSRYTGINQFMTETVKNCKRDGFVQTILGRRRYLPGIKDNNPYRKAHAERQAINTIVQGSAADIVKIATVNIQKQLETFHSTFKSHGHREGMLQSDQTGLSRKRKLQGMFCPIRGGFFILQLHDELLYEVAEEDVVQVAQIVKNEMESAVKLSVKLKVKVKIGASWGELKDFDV
Briefly: Polθ Polymerase Domain WT KI Assay (PicoGreen). The format is biochemical. Conditions: 100 nM DNA substrate, 0.156 nM Polθ, initial rates vs inhibitor concentration. A digest of the protocol:
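E. coli-expressed human Polθ polymerase domain (aa1820-2590) on annealed DNA II Short/Long primer-template (1.2:1), in 25 mM Tris pH 7.5, NaCl, 5% glycerol, 0.01% Triton X-100, 0.1 mg/ml BSA, 1 mM DTT, 1% DMSO. EDTA-quenched timepoints to 180 min, PicoGreen fluorescence. Initial rates vs inhibitor concentration fitted four-parameter for KI.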
With `Cc1cc(C(F)(F)F)cc(N2C(=O)C[C@@H]3CN(CCN4CCN(C)[C@@H](CO)C4)c4c(C)cccc4N(C)C(=O)[C@H]32)n1` [Example 63, (3aR,11aS)-5-(2-((R)-3-(Hydroxymethyl)-4-methylpiperazin-1-yl)ethyl)-6,10-dimethyl-1-(6-methyl-4-(trifluoromethyl)pyridin-2-yl)-1,3a,4,5,10,11a-hexahydro-2H-benzo[b]pyrrolo[2,3-f][1,4]diazocine-2,11(3H)-dione], the Ki worked out at 1.07 nM.
For `Cc1cc(C(F)(F)F)cc(N2C(=O)C[C@@H]3CN(CCN4CCN(C)C[C@H]4CO)c4c(C)cccc4N(C)C(=O)[C@H]32)n1` [Example 64, (3aR,11aS)-5-(2-((S)-2-(Hydroxymethyl)-4-methylpiperazin-1-yl)ethyl)-6,10-dimethyl-1-(6-methyl-4-(trifluoromethyl)pyridin-2-yl)-1,3a,4,5,10,11a-hexahydro-2H-benzo[b]pyrrolo[2,3-f][1,4]diazocine-2,11(3H)-dione dihydrochloride] the value was 0.816 nM; for `Cc1cc(C(F)(F)F)cc(N2C(=O)C[C@@H]3CN(CCN4CCN(C)C[C@@H]4CO)c4c(C)cccc4N(C)C(=O)[C@H]32)n1` [Example 65, (3aR,11aS)-5-(2-((R)-2-(Hydroxymethyl)-4-methylpiperazin-1-yl)ethyl)-6,10-dimethyl-1-(6-methyl-4-(trifluoromethyl)pyridin-2-yl)-1,3a,4,5,10,11a-hexahydro-2H-benzo[b]pyrrolo[2,3-f][1,4]diazocine-2,11(3H)-dione dihydrochloride], 1.38 nM; for `Cc1cc(C(F)(F)F)cc(N2C(=O)C[C@@H]3CN(CCN4CC[C@H](N(C)C)[C@H](F)C4)c4c(C)cccc4N(C)C(=O)[C@H]32)n1` [Example 66, (3aR,11aS)-5-(2-((3R,4S)-4-(Dimethylamino)-3-fluoropiperidin-1-yl)ethyl)-6,10-dimethyl-1-(6-methyl-4-(trifluoromethyl)pyridin-2-yl)-1,3a,4,5,10,11a-hexahydro-2H-benzo[b]pyrrolo[2,3-f][1,4]diazocine-2,11(3H)-dione dihydrochloride], 0.936 nM.
For `Cc1cc(C(F)(F)F)cc(N2C(=O)C[C@@H]3CN(CCN4CCN(S(C)(=O)=O)CC4)c4c(C)cccc4N(C)C(=O)[C@H]32)n1` [Example 67, (3aR,11aS)-6,10-Dimethyl-1-(6-methyl-4-(trifluoromethyl)pyridin-2-yl)-5-(2-(4-(methylsulfonyl)piperazin-1-yl)ethyl)-1,3a,4,5,10,11a-hexahydro-2H-benzo[b]pyrrolo[2,3-f][1,4]diazocine-2,11(3H)-dione] the value was 0.598 nM; for `Cc1cc(C(F)(F)F)cc(N2C(=O)C[C@@H]3CN(CCN4CCS(=O)(=O)CC4)c4c(C)cccc4N(C)C(=O)[C@H]32)n1` [Example 68, (3aR,11aS)-5-(2-(1,1-Dioxidothiomorpholino)ethyl)-6,10-dimethyl-1-(6-methyl-4-(trifluoromethyl)pyridin-2-yl)-1,3a,4,5,10,11a-hexahydro-2H-benzo[b]pyrrolo[2,3-f][1,4]diazocine-2,11(3H)-dione], 1.07 nM.
As for `Cc1cc(C(F)(F)F)cc(N2C(=O)C[C@@H]3CN(CCN4CCC(C#N)CC4)c4c(C)cccc4N(C)C(=O)[C@H]32)n1` [Example 69, 1-(2-((3aR,11aS)-6,10-Dimethyl-1-(6-methyl-4-(trifluoromethyl)pyridin-2-yl)-2,11-dioxo-1,2,3,3a,4,10,11,11a-octahydro-5H-benzo[b]pyrrolo[2,3-f][1,4]diazocin-5-yl)ethyl)piperidine-4-carbonitrile], the figure is 1.12 nM; as for `Cc1cc(C(F)(F)F)cc(N2C(=O)C[C@@H]3CN(CCN4CC[C@H](C#N)C4)c4c(C)cccc4N(C)C(=O)[C@H]32)n1` [Example 70, (S)-1-(2-((3aR,11aS)-6,10-Dimethyl-1-(6-methyl-4-(trifluoromethyl)pyridin-2-yl)-2,11-dioxo-1,2,3,3a,4,10,11,11a-octahydro-5H-benzo[b]pyrrolo[2,3-f][1,4]diazocin-5-yl)ethyl)pyrrolidine-3-carbonitrile], 0.692 nM.
The compound `Cc1cc(C(F)(F)F)cc(N2C(=O)C[C@@H]3CN(CCN4CC[C@@H](C#N)C4)c4c(C)cccc4N(C)C(=O)[C@H]32)n1` [Example 71, (R)-1-(2-((3aR,11aS)-6,10-Dimethyl-1-(6-methyl-4-(trifluoromethyl)pyridin-2-yl)-2,11-dioxo-1,2,3,3a,4,10,11,11a-octahydro-5H-benzo[b]pyrrolo[2,3-f][1,4]diazocin-5-yl)ethyl)pyrrolidine-3-carbonitrile] showed a Ki of 1.15 nM.
As for `Cc1cc(C(F)(F)F)cc(N2C(=O)C[C@@H]3CN(CCN4CC[C@H](C(=O)N(C)C)C4)c4c(C)cccc4N(C)C(=O)[C@H]32)n1` [Example 72, (S)-1-(2-((3aR,11aS)-6,10-Dimethyl-1-(6-methyl-4-(trifluoromethyl)pyridin-2-yl)-2,11-dioxo-1,2,3,3a,4,10,11,11a-octahydro-5H-benzo[b]pyrrolo[2,3-f][1,4]diazocin-5-yl)ethyl)-N,N-dimethylpyrrolidine-3-carboxamide], the figure is 0.969 nM; as for `Cc1cc(C(F)(F)F)cc(N2C(=O)C[C@@H]3CN(CCN4CC[C@@H](C(=O)N(C)C)C4)c4c(C)cccc4N(C)C(=O)[C@H]32)n1` [Example 73, (R)-1-(2-((3aR,11aS)-6,10-Dimethyl-1-(6-methyl-4-(trifluoromethyl)pyridin-2-yl)-2,11-dioxo-1,2,3,3a,4,10,11,11a-octahydro-5H-benzo[b]pyrrolo[2,3-f][1,4]diazocin-5-yl)ethyl)-N,N-dimethylpyrrolidine-3-carboxamide], 8.12 nM; as for `CC(=O)N1CCN(CCN2C[C@H]3CC(=O)N(c4cc(C(F)(F)F)cc(C)n4)[C@@H]3C(=O)N(C)c3cccc(C)c32)[C@@H](C)C1` [Example 74, (3aR,11aS)-5-(2-((S)-4-Acetyl-2-methylpiperazin-1-yl)ethyl)-6,10-dimethyl-1-(6-methyl-4-(trifluoromethyl)pyridin-2-yl)-1,3a,4,5,10,11a-hexahydro-2H-benzo[b]pyrrolo[2,3-f][1,4]diazocine-2,11(3H)-dione], 1.21 nM.
For `Cc1cc(C(F)(F)F)cc(N2C(=O)C[C@@H]3CN(CCN4CCN5C(=O)COC[C@H]5C4)c4c(C)cccc4N(C)C(=O)[C@H]32)n1` [Example 75, (3aR,11aS)-6,10-Dimethyl-1-(6-methyl-4-(trifluoromethyl)pyridin-2-yl)-5-(2-((R)-4-oxohexahydropyrazino[2,1-c][1,4]oxazin-8(1H)-yl)ethyl)-1,3a,4,5,10,11a-hexahydro-2H-benzo[b]pyrrolo[2,3-f][1,4]diazocine-2,11(3H)-dione] the value was 1.81 nM; for `Cc1cc(C(F)(F)F)cc(N2C(=O)C[C@@H]3CN(Cc4cc5n(n4)CCN(C)C5)c4c(Cl)cccc4N(C)C(=O)[C@H]32)n1` [Example 76, (3aR,11aS)-6-Chloro-10-methyl-5-((5-methyl-4,5,6,7-tetrahydropyrazolo[1,5-a]pyrazin-2-yl)methyl)-1-(6-methyl-4-(trifluoromethyl)pyridin-2-yl)-1,3a,4,5,10,11a-hexahydro-2H-benzo[b]pyrrolo[2,3-f][1,4]diazocine-2,11(3H)-dione], 0.458 nM; for `Cc1cc(C(F)(F)F)cc(N2C(=O)C[C@@H]3CN(CC4CCNCC4)c4c(F)cccc4N(C)C(=O)[C@H]32)n1` [Example 77, (3aR,11aS)-6-Fluoro-10-methyl-1-(6-methyl-4-(trifluoromethyl)pyridin-2-yl)-5-(piperidin-4-ylmethyl)-1,3a,4,5,10,11a-hexahydro-2H-benzo[b]pyrrolo[2,3-f][1,4]diazocine-2,11(3H)-dione Hydrochloride], 11.3 nM.
As for `Cc1cc(C(F)(F)F)cc(N2C(=O)C[C@@H]3CN(CC4CCNCC4)c4c(Cl)cccc4N(C)C(=O)[C@H]32)n1` [Example 78, (3aR,11aS)-6-Chloro-10-methyl-1-(6-methyl-4-(trifluoromethyl)pyridin-2-yl)-5-(piperidin-4-ylmethyl)-1,3a,4,5,10,11a-hexahydro-2H-benzo[b]pyrrolo[2,3-f][1,4]diazocine-2,11(3H)-dione], the figure is 1.1 nM; as for `Cc1cc(C(F)(F)F)cc(N2C(=O)C[C@@H]3CN(CC4CCN(C)CC4)c4c(C)cccc4N(C)C(=O)[C@H]32)n1` [Example 79, (3aR,11aS)-6,10-Dimethyl-1-(6-methyl-4-(trifluoromethyl)pyridin-2-yl)-5-((1-methylpiperidin-4-yl)methyl)-1,3a,4,5,10,11a-hexahydro-2H-benzo[b]pyrrolo[2,3-f][1,4]diazocine-2,11(3H)-dione], 1.36 nM.

The Ki is the dissociation constant of the complex between target and ligand, obtained from inhibition or displacement.

For the origin of these results see US20260124214A1, “HETEROCYCLIC COMPOUNDS FOR USE IN THE TREATMENT OF CANCER” (ARTIOS PHARMA LIMITED, priority 2021, published 2026).
